Read-outs that look alike come from different tables or passages of the source.
Assay: Human pharmacokinetics, dose-ranging study
Assay type: in vivo
Details: for AUC(0-t) / Cmax / half-life / Tmax: human, plasma, po, oral capsule; for Cmax: read-out: Cmax; for half-life: read-out: T1/2 (converted); for Tmax: read-out: Tmax
Description: In a dose-ranging study, the pharmacokinetics (PK), safety and tolerability of RX-5902 at various oral doses were evaluated. Subjects with advanced or metastatic solid tumors were administered capsules containing RX-5902 at daily doses of 25-775 mg once weekly, 250-300 mg three times a week, 150-300 mg five times a week, or 300-350 mg seven times a week of RX-5902 for up to 6 dosing cycles. Each cycle consisting of 1-5 doses of RX-5902 per week for 3 weeks followed by 1 week of rest, or 5-7 doses of RX-5902 per week for 4 weeks without any rest per 4-week cycle. All but one subject had fasted from food for at least 8 hours before administration. One subject received 300 mg RX-5902 in fed state. Plasma concentrations were measured on Days 1 and 15, for 48 hrs, using a validated LC-MS/MS assay, and noncompartmental pharmacokinetic parameters were calculated using Phoenix WinNonlin, Version 6.4.
Preliminary PK data after a single administration is presented in FIG. 1 (for Subjects #1-11) and Table 3.

[1] = 25 mg, 25 mg, 1 per week, Day 1, fasted
[2] = 50 mg, 50 mg, 1 per week, Day 1, fasted
[3] = 100 mg, 100 mg, 1 per week, Day 1, fasted
[4] = 150 mg, 150 mg, 1 per week, Day 1, fasted
[5] = 150 mg, 150 mg, 5 per week, Day 1, fasted
[6] = 150 mg, 150 mg, 5 per week, Day 15, fasted
[7] = 200 mg, 200 mg, 5 per week, Day 1, fasted
[8] = 200 mg, 200 mg, 5 per week, Day 15, fasted
[9] = 225 mg, 225 mg, 1 per week, Day 1, fasted
[10] = 250 mg, 250 mg, 3 per week, Day 1, fasted
[11] = 250 mg, 250 mg, 3 per week, Day 15, fasted
[12] = 300 mg, 300 mg, 1 per week, Day 1, fasted

With COc1cc(OC)cc(N2CCN(C(=O)Nc3nc4cc(F)ccc4nc3OC)CC2)c1 [RX-5902, 4-(3,5-dimethoxyphenyl)-N-(7-fluoro-3-methoxyquinoxalin-2-yl)piperazine-1-carboxamide] the “exposure in fed state compared to fasted state” value (300 mg oral, one fed subject) was “significantly higher exposure”, the AUC(0-t) (25 mg, 25 mg, 1 per week, Day 1, fasted, read-out: AUC0-24) was 830 ng·h/mL and the AUC(0-t) (25 mg, 25 mg, 1 per week, Day 1, fasted, read-out: AUC0-48) was 894 ng·h/mL. The Cmax [1] was 99.1 ng/mL, the half-life [1] was 5.8 h and the Tmax [1] was 6 h. It also gave an AUC(0-t) (50 mg, 50 mg, 1 per week, Day 1, fasted, read-out: AUC0-24) of 1030 ng·h/mL, an AUC(0-t) (50 mg, 50 mg, 1 per week, Day 1, fasted, read-out: AUC0-48) of 1310 ng·h/mL and a Cmax [2] of 109 ng/mL. It also gave a half-life [2] of 13.2 h, a Tmax [2] of 1.5 h and an AUC(0-t) (100 mg, 100 mg, 1 per week, Day 1, fasted, read-out: AUC0-24) of 1780 ng·h/mL. The AUC(0-t) (100 mg, 100 mg, 1 per week, Day 1, fasted, read-out: AUC0-48) was 2340 ng·h/mL, the Cmax [3] was 252 ng/mL and the half-life [3] was 27.6 h. It also gave a Tmax [3] of 2 h, an AUC(0-t) (150 mg, 150 mg, 1 per week, Day 1, fasted, read-out: AUC0-24) of 2690 ng·h/mL and an AUC(0-t) (150 mg, 150 mg, 1 per week, Day 1, fasted, read-out: AUC0-48) of 3280 ng·h/mL. For the same molecule, the Cmax [4] was 226 ng/mL, the half-life [4] was 11.5 h and the Tmax [4] was 6 h. The AUC(0-t) (150 mg, 150 mg, 5 per week, Day 1, fasted, read-out: AUC0-24) was 2150 ng·h/mL, the Cmax [5] was 227 ng/mL and the Tmax [5] was 2 h. The AUC(0-t) (150 mg, 150 mg, 5 per week, Day 15, fasted, read-out: AUC0-24) was 3720 ng·h/mL, the Cmax [6] was 347 ng/mL and the Tmax [6] was 1 h. The AUC(0-t) (200 mg, 200 mg, 5 per week, Day 1, fasted, read-out: AUC0-24) was 2750 ng·h/mL, the Cmax [7] was 337 ng/mL and the half-life [7] was 8.5 h. It also gave a Tmax [7] of 4 h, an AUC(0-t) (200 mg, 200 mg, 5 per week, Day 15, fasted, read-out: AUC0-24) of 4030 ng·h/mL and a Cmax [8] of 440 ng/mL. For the same molecule, the Tmax [8] was 2 h, the AUC(0-t) (225 mg, 225 mg, 1 per week, Day 1, fasted, read-out: AUC0-24) was 3420 ng·h/mL and the AUC(0-t) (225 mg, 225 mg, 1 per week, Day 1, fasted, read-out: AUC0-48) was 4310 ng·h/mL. It also gave a Cmax [9] of 364 ng/mL, a half-life [9] of 12 h and a Tmax [9] of 4 h. It also gave an AUC(0-t) (250 mg, 250 mg, 3 per week, Day 1, fasted, read-out: AUC0-24) of 3980 ng·h/mL, an AUC(0-t) (250 mg, 250 mg, 3 per week, Day 1, fasted, read-out: AUC0-48) of 5210 ng·h/mL and a Cmax [10] of 394 ng/mL. The half-life [10] was 14 h, the Tmax [10] was 2 h and the AUC(0-t) (250 mg, 250 mg, 3 per week, Day 15, fasted, read-out: AUC0-24) was 4810 ng·h/mL. For the same molecule, the AUC(0-t) (250 mg, 250 mg, 3 per week, Day 15, fasted, read-out: AUC0-48) was 7770 ng·h/mL, the Cmax [11] was 403 ng/mL and the Tmax [11] was 2 h. It also gave an AUC(0-t) (300 mg, 300 mg, 1 per week, Day 1, fasted, read-out: AUC0-24) of 4680 ng·h/mL, an AUC(0-t) (300 mg, 300 mg, 1 per week, Day 1, fasted, read-out: AUC0-48) of 6140 ng·h/mL and a Cmax [12] of 318 ng/mL. It also gave a half-life [12] of 14.6 h, an AUC(0-t) (300 mg, 300 mg, 1 per week, Day 1, fed, read-out: AUC0-24) of 8620 ng·h/mL and an AUC(0-t) (300 mg, 300 mg, 1 per week, Day 1, fed, read-out: AUC0-48) of 10700 ng·h/mL.
